Laboratory results: PubChem BioAssay AID489016 (The Scripps Research Institute Molecular Screening Center, 2010)

Tested on: P. falciparum 3D7 in RBCs, 3H-hypoxanthine incorporation, 48 h
Assay: antimalarial potency in infected red cells – cell-based, radiolabel, RBCs, powder sample, late stage, M17LAP inhibitor project, dose response (AID 489016)

`CCCCOc1ccc(CC(=O)NO)cc1` gave an IC50 of 1700 nM.
